Experimental data reported in patent US20190209501A1, “COMPOSITIONS AND METHODS OF USE OF BETA-HYDROXY-BETA-METHYLBUTYRATE (HMB) […] IN[…]” (Texas Tech University Office of Research Commercialization, priority 2018, published 2019).
Entries after “also recorded” stand apart in the source; their conditions may differ. Marks after values point to notes of the source that are not given here.

What was measured:
Assay type in all cases: in vivo, human
[1] = Salivary cortisol awakening response; design: Cortisol Awakening Response (AUC) / Cortisol Awakening Response (AUC) Δ: unit not given here; details: for Average Cortisol / Cortisol Awakening Response (AUC): mean ± SE; for Average Cortisol Δ / Average Cortisol Δ (%) / Cortisol Awakening Response (AUC) Δ / Cortisol Awakening Response (AUC) Δ (%): change baseline to W 8; for Average Cortisol ES (d) / Cortisol Awakening Response (AUC) ES (d): effect size
Source text: (§1) At baseline and after 4 and 8 weeks of the intervention, participants completed two testing sessions: (1) a morning assessment conducted after an overnight fast for assessment of body composition, metabolism, vascular measures and subjective factors: and (2) an afternoon assessment of muscular performance, conducted in the non-fasted state. For morning assessments, participants reported to the laboratory after abstention from eating, drinking, exercising and utilizing caffeine or nicotine for ≥8 hours. Participants were interviewed to confirm adherence to these pre-assessment restrictions. The actual abstention from exercise was ≥14 hours due to the scheduling of exercise sessions. Participants reported to the laboratory wearing athletic clothing, and all metal and accessories were removed from the body prior to testing. Each participant voided her bladder and provided a urine sample. Urine samples were assessed for urine specific gravity (USG) using a digital refractometer (PA201X-093. Misco, Solon, Ohio. USA). Additionally, a standard urinary HCG test was performed to confirm that each participant was not pregnant. Finally, urinary samples were frozen at −80° C. for assessment of urinary HMB content after study unblinding. After voiding, each participant's body mass (BM) and height were determined via digital scale with stadiometer (Seca 769, Hamburg, Germany). Blood draws were performed at Texas Tech University Student Health Services after an overnight fast, and participants completed at-home saliva collections for assessment of the cortisol awakening response (CAR).
Each participant was familiarized with the saliva collection procedures at the baseline visit. Saliva collection took place using the passive drool method, with allows for saliva to be transferred from the mouth to a small vial according to manufacturer recommendations (36). Three saliva samples during the baseline period for assessment of the cortisol awakening response (CAR; the characteristic increase in cortisol concentrations upon waking (37)). These samples were collected at the participant's home 0, 30 and 45 minutes after waking. The importance of collecting the saliva sample exactly as instructed was strongly emphasized to research participants. Participants were provided with reminder signs to place by the bedside and were instructed to set alarms for saliva collection timepoints. Upon obtaining the sample, each participant was instructed to place the vial in the freezer until it could be transported to the laboratory. Upon delivery to the lab, each vial of saliva was stored at −80° C. until shipment to a saliva testing facility for analysis (Salimetrics LLC, Carlsbad, Calif., USA). For the analysis, samples were thawed to room temperature, vortexed, and then centrifuged for 15 minutes at approximately 3,000 RPM (1,500×g) immediately before performing the assay. Samples were tested for salivary cortisol using a high sensitivity enzyme immunoassay (Cat. No. 1-3002). Sample test volume was 25 μl of saliva per determination. The assay has a lower limit of sensitivity of 0.007 μg/dL, a standard curve range from 0.012-3.0 μg/dL, and an average intra-assay coefficient of variation of 4.60%, and an average inter-assay coefficient of variation 6.00%, which meets the manufacturers' criteria for accuracy and repeatability in Salivary Bioscience. and exceeds the applicable NIH guidelines for Enhancing Reproducibility through Rigor and Transparency.

[2] = Body composition, modified 4-component model (DXA + BIS), and body mass; details: for FM (kg) Week 4 / FM (kg) Week 8: 4-component fat mass; for FFM (kg) Week 4 / FFM (kg) Week 8: 4-component fat-free mass; for BF % ES (d) / BM ES (d) / FFM ES (d) / FM ES (d): Cohen's d baseline vs week 8; for BM (kg) Week 4 / BM (kg) Week 8: body mass; for BF % Δ (%) / BM Δ (%) / FFM Δ (%) / FM Δ (%): change baseline to week 8 relative to baseline; for BM (kg) Δ / FFM (kg) Δ / FM (kg) Δ: week 8 minus baseline; for BF % Δ: week 8 minus baseline (absolute BF %)
Source text: as §1
Body composition was assessed using a modified 4-component (4C) model (20, 21) produced from dual-energy x-ray absorptiometry (DXA) and bioimpedance spectroscopy (BIS) data. DXA scans were performed on a Lunar Prodigy scanner (General Electric, Boston, Mass., USA) with enCORE software (v. 16.2). The scanner was calibrated using a quality control block each morning prior to use, and positioning of participants was conducted according to manufacturer recommendations. Each participant was able to fit within the scanning dimensions. DXA bone mineral content (BMC) was divided by 0.9582 to yield an estimate of bone mineral (Mo) (22). Additionally, body volume (BV) was estimated from DXA lean soft tissue (LST), fat mass (FM) and BMC using the equation developed by Wilson et al. for General Electric DXA scanners (20):
BIS was utilized to obtain total body water (TBW) estimates. BIS utilizes Cole modeling (23) and mixture theories (24) to predict body fluids rather than regression equations used by other impedance methods (e.g. bioelectrical impedance analysis (25)). The BIS device used in the present study (SFB7, ImpediMed. Carlsbad, Calif., USA) employs 256 measurement frequencies ranging from 4 to 1,000 kHz. Each participant remained supine for ≥5 minutes immediately prior to assessment using the manufacturer-recommended hand-to-foot electrode arrangement. Duplicate assessments were performed, with the values averaged for analysis. Assessments were reviewed for quality assurance through visual inspection of Cole plots.
The 4C equation of Wang et al. was utilized for estimation of whole-body FM (26):
FFM was calculated as BM−FM, and BF % was calculated as (FM/BM)×100.

[3] = Urinary HMB concentrations; details: for Urinary HMB concentration, Intervention: during intervention, 3 g/d calcium HMB
Source text: as §1

[4] = ITT analysis, week 4, mean ± SE
[5] = ITT analysis, week 8, mean ± SE

## CC(C)(O)CC(=O)O [TRFHMB, β-hydroxy-β-methylbutyrate]
[1]; ITT, Baseline
  Average Cortisol: 0.40 ± 0.07 µg/dL
  Cortisol Awakening Response (AUC): 17.5 ± 3.2
[1]; ITT, W 8
  Average Cortisol: 0.39 ± 0.98 µg/dL
  Cortisol Awakening Response (AUC): 16.9 ± 4.0
[1]; ITT
  Average Cortisol Δ: -0.01 µg/dL
  Average Cortisol Δ (%): −3%
  Cortisol Awakening Response (AUC) Δ: −0.6
  Cortisol Awakening Response (AUC) Δ (%): −3%
  Average Cortisol ES (d): −0.04
  Cortisol Awakening Response (AUC) ES (d): −0.05
[1]; PP, Baseline
  Average Cortisol: 0.34 ± 0.07 µg/dL
  Cortisol Awakening Response (AUC): 14.0 ± 3.3
[1]; PP, W 8
  Average Cortisol: 0.42 ± 0.1 µg/dL
  Cortisol Awakening Response (AUC): 18.2 ± 4.7
[1]; PP
  Average Cortisol Δ: 0.1 µg/dL
  Average Cortisol Δ (%): 24%
  Cortisol Awakening Response (AUC) Δ: 4.2
  Cortisol Awakening Response (AUC) Δ (%): 30%
  Average Cortisol ES (d): 0.93
  Cortisol Awakening Response (AUC) ES (d): 0.64
[2]; 4 weeks
  Absolute effect size for BF % loss, TRFHMB relative to HMB only: 2 fold
[2]; ITT analysis, 4-component body fat percentage, week 4, mean ± SE
  BF % Week 4: 27.1 ± 1.7%
[2]; ITT analysis, 4-component body fat percentage, week 8, mean ± SE
  BF % Week 8: 27.3 ± 1.6%
[2]; [4]
  FM (kg) Week 4: 17.5 ± 1.5 kg
  FFM (kg) Week 4: 46.5 ± 1.4 kg
  BM (kg) Week 4: 63.9 ± 2.2 kg
[2]; [5]
  FM (kg) Week 8: 17.5 ± 1.5 kg
  FFM (kg) Week 8: 46.2 ± 1.3 kg
  BM (kg) Week 8: 63.8 ± 2.1 kg
[2]; ITT analysis
  BF % ES (d): −0.25
  BM ES (d): 0.08
  FFM ES (d): 0.26
  FM ES (d): −0.13
  BF % Δ (%): −5%
  BM Δ (%): 1%
  FFM Δ (%): 3%
  FM Δ (%): −4%
  BM (kg) Δ: 0.6 kg
  FFM (kg) Δ: 1.2 kg
  FM (kg) Δ: -0.7 kg
  BF % Δ: −1.4%
[2]; PP analysis
  Fat mass change versus baseline (in words): significant reductions; also recorded: lower at W8 than baseline
  BF % ES (d): −0.34
  BM ES (d): 0.00
  FFM ES (d): 0.32
  FM ES (d): −0.23
  BF % Δ (%): −8%
  BM Δ (%): 0%
  FFM Δ (%): 3%
  FM Δ (%): −7%
  BM (kg) Δ: 0.0 kg
  FFM (kg) Δ: 1.4 kg
  FM (kg) Δ: -1.4 kg
  BF % Δ: −2.3%
[2]; PP analysis, 4-component body fat percentage, week 8, mean ± SE
  BF % Week 8: 26.8 ± 2.6^b %
[2]; PP analysis, week 4, mean ± SE
  FM (kg) Week 4: 17.5 ± 2.5 kg
  FFM (kg) Week 4: 46.8 ± 1.8 kg
[2]; PP analysis, week 8, mean ± SE
  FM (kg) Week 8: 17.3 ± 2.3^b kg
  FFM (kg) Week 8: 46.4 ± 1.6 kg
  BM (kg) Week 8: 63.7 ± 3.0 kg
[2]; PP analysis, week 4 of TRF + 3 g/d HMB + RT, mean ± SE
  BM (kg) Week 4: 64.2 ± 3.1 kg
[2]; PP analysis, week 8
  Reduction in BF % at W8 (significance): statistically significant
[2]; PP, TRF + 3 g/d Calcium-HMB + RT, n=7
  BF % 4-week effect size (d): −0.31
[2]; PP, TRF + 3 g/d Calcium-HMB + RT, n=7, baseline 29.1±2.5, p<0.05
  BF % 4-week Δ-change: −2.1%
[3]; ITT analysis
  Urinary HMB concentration, Intervention: 5033 ± 751 nmol/mL
[3]; PP analysis
  Urinary HMB concentration, Intervention: 6553 ± 1117 nmol/mL
[3]; both ITT and PP analyses
  Change in urinary HMB concentrations from pre-intervention to intervention: increased significantly
